Source: patent publication US20230135729A1, “COMPOUND WITH ANTI-SPORE ACTIVITY AND PHARMACEUTICAL COMPOSITION THEREOF” (priority 2020, published 2023)
Converted amounts (≈) assume the structure as drawn. Where two headings read alike, the source gives them in different places.

Key:
Format in all cases: cell-based
[1] = tested on: spores of ATCC BBA1870 strain; assay: Inhibition of germination of C. difficile spores (MIC), strain ATCC BBA1870; details: Clostridioides difficile, ATCCBBA1870STRAIN, 1 h, read-out: MIC (minimum concentration that completely inhibits spore germination)
Experimental: (§1) According to a method disclosed in “The Journal of Infectious Diseases. 2013; 207: 1498-504”, spores of ATCC BBA1870, ATCC 43255 and ATCC 630 strains were obtained by culture and purification, and stored at 4° C.
(§2) Spore preparation: the C. difficile spores stored at 4° C. were heat-activated for 30 min at 65° C., centrifuged at 9,400 g for 2 min, and washed three times to remove any self-germinating spores.
(§3) Control drug: three cholic acid derivatives, a compound CamSA, a compound 20β (prepared by the method of “Journal of Medicinal Chemistry. 2017, 60 (8): 3451-3471”), and a compound 12a (prepared by the method of “Journal of Medicinal Chemistry. 2018, 61, 6759-6778”), were used as control drugs.
(§4) Compound preparation: the compound of the present disclosure, and the positive control drugs CamSA, 20β, and 12a were dissolved in DMSO, to prepare a stock solution with a concentration of 10 mM (prepared for immediate use).
(§5) The detection was conducted in a 96-well cell culture plate at a constant temperature of 37° C.; a final volume of each well of the 96-well plate was […] and a buffer was the BHIS medium; 150 μl of spores and drugs were added to the well in advance, and 50 μl of 4 mg/ml sodium taurocholate was added; OD580 was detected every 1 min immediately using a microplate reader, for continuously 60 min. A germination agent control group and a non-germination group were set up; after the detection, a final OD value of each well was compared with an initial value, and compared with the germination agent group to calculate a germination rate and an inhibition rate. A formula for the germination rate was:
(§6) Inhibition rate=100%−germination rate.

[2] = tested on: spores of ATCC 630 strain; assay: Inhibition of germination of C. difficile spores (MIC), strain ATCC 630; details: Clostridioides difficile, ATCC630, 1 h, read-out: MIC (minimum concentration that completely inhibits spore germination)
Experimental: as §1, §2, §3, §4, §5, §6

[3] = tested on: spores of ATCC 43255 strain; assay: Inhibition of germination of C. difficile spores (MIC), strain ATCC 43255; details: Clostridioides difficile, ATCC43255, 1 h, read-out: MIC (minimum concentration that completely inhibits spore germination)
Experimental: as §1, §2, §3, §4, §5, §6

[4] = strain 1870, sodium taurocholate as germinant, BHIS medium, 37° C., OD580 for 60 min
[5] = strain 630, sodium taurocholate as germinant, BHIS medium, 37° C., OD580 for 60 min
[6] = strain 43255, sodium taurocholate as germinant, BHIS medium, 37° C., OD580 for 60 min

SMILES | MIC [1, 4] [µM] | MIC [2, 5] [µM] | MIC [3, 6] [µM] | MIC [1] [µM] | MIC [2] [µM] | MIC [3] [µM]
C[C@H](NC(=O)C[C@@H](C)[C@H]1CC[C@H]2[C@@H]3C(=O)C[C@@H]4CC(=O)CC[C@]4(C)[C@H]3CC[C@]12C)c1ccccc1 [Compound I-24] | > 256 | > 256 | > 256 |  |  | 
C[C@H](CC(=O)NC(c1ccccc1)c1ccccc1)[C@H]1CC[C@H]2[C@@H]3C(=O)C[C@@H]4CC(=O)CC[C@]4(C)[C@H]3CC[C@]12C [Compound I-61] | 128 (≈ 69.1 µg/mL) | 128 (≈ 69.1 µg/mL) | 128 (≈ 69.1 µg/mL) |  |  | 
CC[C@H](NC(=O)C[C@@H](C)[C@H]1CC[C@H]2[C@@H]3C(=O)C[C@@H]4CC(=O)CC[C@]4(C)[C@H]3CC[C@]12C)c1cccs1 [Compound I-36] | 8 (≈ 3.98 µg/mL) | 4 (≈ 1.99 µg/mL) | 8 (≈ 3.98 µg/mL) |  |  | 
CC[C@H](NC(=O)C[C@@H](C)[C@H]1CC[C@H]2[C@@H]3C(=O)C[C@@H]4CC(=O)CC[C@]4(C)[C@H]3CC[C@]12C)c1ccc(S(=O)(=O)O)s1 [Compound I-73] | > 256 | > 256 | > 256 |  |  | 
CC(C)[C@@H](NC(=O)C[C@@H](C)[C@H]1CC[C@H]2[C@@H]3C[C@H](O)[C@@H]4C[C@H](O)CC[C@]4(C)[C@H]3CC[C@]12C)c1ccc(Br)s1 [Compound I-128] | 2 (≈ 1.19 µg/mL) | 1 (≈ 0.595 µg/mL) | 2 (≈ 1.19 µg/mL) |  |  | 
CCC(NC(=O)C[C@@H](C)[C@H]1CC[C@H]2[C@@H]3C(=O)C[C@@H]4CC(=O)CC[C@]4(C)[C@H]3CC[C@]12C)c1ccc(Br)s1 (stereo partly drawn) [Compound I-38] | 2 (≈ 1.15 µg/mL) | 1 (≈ 0.577 µg/mL) | 2 (≈ 1.15 µg/mL) |  |  | 
C[C@H](CC(=O)NC(C(=O)O)c1ccccc1)[C@H]1CC[C@H]2[C@@H]3C(=O)C[C@@H]4CC(=O)CC[C@]4(C)[C@H]3CC[C@]12C (stereo partly drawn) [Compound I-63] | > 256 | 256 (≈ 130 µg/mL) | 256 (≈ 130 µg/mL) |  |  | 
C[C@H](CC(=O)NCc1cccs1)[C@H]1CC[C@H]2[C@@H]3C(=O)C[C@@H]4CC(=O)CC[C@]4(C)[C@H]3CC[C@]12C [Compound I-26] | 0.5 (≈ 0.235 µg/mL) | 0.5 (≈ 0.235 µg/mL) | 1 (≈ 0.47 µg/mL) |  |  | 
C[C@H](CC(=O)NCc1ccccn1)[C@H]1CC[C@H]2[C@@H]3[C@H](O)C[C@@H]4C[C@H](O)CC[C@]4(C)[C@H]3CC[C@]12C [Compound I-6] | 64 (≈ 30 µg/mL) | 64 (≈ 30 µg/mL) | 64 (≈ 30 µg/mL) |  |  | 
CC(C)[C@@H](NC(=O)C[C@@H](C)[C@H]1CC[C@H]2[C@@H]3[C@H](OS(=O)(=O)O)C[C@@H]4CC(=O)CC[C@]4(C)[C@H]3CC[C@]12C)c1ccc(Cl)s1 [Compound I-112] | 0.5 (≈ 0.314 µg/mL) | 0.5 (≈ 0.314 µg/mL) | 0.25 (≈ 0.157 µg/mL) |  |  | 
CC[C@@H](NC(=O)C[C@@H](C)[C@H]1CC[C@H]2[C@@H]3[C@H](OC(=O)CCCCCCC(=O)O)C[C@@H]4CC(=O)CC[C@]4(C)[C@H]3CC[C@]12C)c1ccc(Cl)s1 [Compound I-187] | 0.125 (≈ 0.0863 µg/mL) | 0.125 (≈ 0.0863 µg/mL) | 0.125 (≈ 0.0863 µg/mL) |  |  | 
CC[C@@H](NC(=O)C[C@@H](C)[C@H]1CC[C@H]2[C@@H]3[C@H](O)C[C@@H]4CC(=O)CC[C@]4(C)[C@H]3C[C@H](O)[C@]12C)c1ccc(Br)s1 [Compound I-165] | 64 (≈ 38.1 µg/mL) | 32 (≈ 19 µg/mL) | 64 (≈ 38.1 µg/mL) |  |  | 
CC(C)[C@@H](NC(=O)C[C@@H](C)[C@H]1CC[C@H]2[C@@H]3[C@H](OC(=O)CCCCCCC(=O)O)C[C@@H]4CC(=O)CC[C@]4(C)[C@H]3CC[C@]12C)c1ccc(Cl)s1 [Compound I-189] | 0.25 (≈ 0.176 µg/mL) | 0.125 (≈ 0.0881 µg/mL) | 0.25 (≈ 0.176 µg/mL) |  |  | 
CC[C@@H](NC(=O)C[C@@H](C)[C@H]1CC[C@H]2[C@@H]3[C@H](O)C[C@@H]4C[C@H](O)CC[C@]4(C)[C@H]3CC[C@]12C)c1ccc(Cl)s1 [Compound I-137] | 1 (≈ 0.536 µg/mL) | 1 (≈ 0.536 µg/mL) | 1 (≈ 0.536 µg/mL) |  |  | 
C[C@H](CC(=O)N[C@H](c1cccs1)C1CC1)[C@H]1CC[C@H]2[C@@H]3C(=O)C[C@@H]4CC(=O)CC[C@]4(C)[C@H]3CC[C@]12C [Compound I-49] | > 256 | > 256 | > 256 |  |  | 
CC[C@@H](NC(=O)C[C@@H](C)[C@H]1CC[C@H]2[C@@H]3[C@H](OS(=O)(=O)O)C[C@@H]4CC(=O)CC[C@]4(C)[C@H]3CC[C@]12C)c1ccc(Cl)s1 [Compound I-106] | 0.5 (≈ 0.307 µg/mL) | 0.5 (≈ 0.307 µg/mL) | 0.25 (≈ 0.154 µg/mL) |  |  | 
CCCCCCCC(=O)O[C@@H]1C[C@@H]2CC(=O)CC[C@]2(C)[C@H]2CC[C@]3(C)[C@@H]([C@H](C)CC(=O)N[C@H](CC)c4ccc(Cl)s4)CC[C@H]3[C@H]12 [Compound I-183] | 256 (≈ 169 µg/mL) | 128 (≈ 84.5 µg/mL) | 128 (≈ 84.5 µg/mL) |  |  | 
CC(C)[C@H](NC(=O)C[C@@H](C)[C@H]1CC[C@H]2[C@@H]3C(=O)C[C@@H]4CC(=O)CC[C@]4(C)[C@H]3CC[C@]12C)c1ccc(S(=O)(=O)O)s1 [Compound I-82] | > 256 | > 256 | 256 (≈ 152 µg/mL) |  |  | 
CCC(NC(=O)C[C@@H](C)[C@H]1CC[C@H]2[C@@H]3[C@H](O)[C@H](O)[C@@H]4C[C@H](O)CC[C@]4(C)[C@H]3CC[C@]12C)c1ccc(Br)s1 (stereo partly drawn) [Compound I-118] | 16 (≈ 9.55 µg/mL) | 8 (≈ 4.77 µg/mL) | 8 (≈ 4.77 µg/mL) |  |  | 
C[C@H](CC(=O)NC(c1cccs1)C1CCC1)[C@H]1CC[C@H]2[C@@H]3C(=O)C[C@@H]4CC(=O)CC[C@]4(C)[C@H]3CC[C@]12C (stereo partly drawn) [Compound I-57] | 32 (≈ 16.8 µg/mL) | 16 (≈ 8.38 µg/mL) | 32 (≈ 16.8 µg/mL) |  |  | 
CCC(NC(=O)C[C@@H](C)[C@H]1CC[C@H]2[C@@H]3[C@H](O)[C@H](O)[C@@H]4C[C@H](O)CC[C@]4(C)[C@H]3CC[C@]12C)c1cccs1 (stereo partly drawn) [Compound I-116] | 16 (≈ 8.28 µg/mL) | 16 (≈ 8.28 µg/mL) | 16 (≈ 8.28 µg/mL) |  |  | 
CC(C)[C@@H](NC(=O)C[C@@H](C)[C@H]1CC[C@H]2[C@@H]3[C@H](O)C[C@@H]4C[C@H](O)CC[C@]4(C)[C@H]3CC[C@]12C)c1ccc(Br)s1 [Compound I-140] | 1 (≈ 0.595 µg/mL) | 1 (≈ 0.595 µg/mL) | 1 (≈ 0.595 µg/mL) |  |  | 
C[C@H](CC(=O)NCc1cccs1)[C@H]1CC[C@H]2[C@@H]3[C@H](O)C[C@@H]4C[C@H](O)CC[C@]4(C)[C@H]3CC[C@]12C [Compound I-3] | 8 (≈ 3.79 µg/mL) | 4 (≈ 1.89 µg/mL) | 8 (≈ 3.79 µg/mL) |  |  | 
CC[C@H](NC(=O)C[C@@H](C)[C@H]1CC[C@H]2[C@@H]3[C@H](O)C[C@@H]4CC(=O)CC[C@]4(C)[C@H]3CC[C@]12C)c1cccs1 [Compound I-132] | > 256 | 256 (≈ 128 µg/mL) | 128 (≈ 64 µg/mL) |  |  | 
C[C@H](CC(=O)NC(c1ccc(S(=O)(=O)O)s1)C1CC1)[C@H]1CC[C@H]2[C@@H]3C(=O)C[C@@H]4CC(=O)CC[C@]4(C)[C@H]3CC[C@]12C (stereo partly drawn) [Compound I-52] | 16 (≈ 9.44 µg/mL) | 16 (≈ 9.44 µg/mL) | 16 (≈ 9.44 µg/mL) |  |  | 
CC(C)[C@@H](NC(=O)C[C@@H](C)[C@H]1CC[C@H]2[C@@H]3C(=O)C[C@@H]4CC(=O)CC[C@]4(C)[C@H]3CC[C@]12C)c1ccc(Cl)s1 [Compound I-77] | 0.25 (≈ 0.137 µg/mL) | 0.25 (≈ 0.137 µg/mL) | 0.25 (≈ 0.137 µg/mL) |  |  | 
CC(C)[C@@H](NC(=O)C[C@@H](C)[C@H]1CC[C@H]2[C@@H]3C(=O)CC4=CC(=O)CC[C@]4(C)[C@H]3CC[C@]12C)c1ccc(Br)s1 [Compound I-152] | 1 (≈ 0.589 µg/mL) | 0.5 (≈ 0.294 µg/mL) | 1 (≈ 0.589 µg/mL) |  |  | 
CC(C)[C@@H](NC(=O)C[C@@H](C)[C@H]1CC[C@H]2[C@@H]3[C@H](O)C[C@@H]4CC(=O)CC[C@]4(C)[C@H]3C[C@H](O)[C@]12C)c1ccc(Br)s1 [Compound I-166] | 64 (≈ 39 µg/mL) | 32 (≈ 19.5 µg/mL) | 32 (≈ 19.5 µg/mL) |  |  | 
CCC(NC(=O)C[C@@H](C)[C@H]1CC[C@H]2[C@@H]3C(=O)C[C@@H]4CC(=O)CC[C@]4(C)[C@H]3CC[C@]12C)c1ccccc1 (stereo partly drawn) [Compound I-58] |  |  |  | 8 (≈ 3.93 µg/mL) | 4 (≈ 1.97 µg/mL) | 4 (≈ 1.97 µg/mL)
